# Laboratory results reported in US20170190671A1, “BIS(ARYL)CATECHOL DERIVATIVES AS HERBICIDES” (E I DU PONT DE NEMOURS AND COMPANY, priority 2014, published 2017).
# Key:
# [1] = tested on: pigweed (Amaranthus retroflexus); assay: Test A preemergence; assay type: in vivo; settings: Amaranthus retroflexus, pre-emergence, 240 h, 1000 g ai/ha, 0 to 100 scale, read-out: Plant response rating, Pigweed
# In short: (§1)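 Pre- and postemergence greenhouse screen. Soil: loam + sand. Spray carrier: solvent mixture, non-phytotoxic, with surfactant. Post timing at 1–2 leaves, height 2–10 cm. Readout: visual injury on a 0–100 scale roughly 10 days after application, untreated plants as reference.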
# [2] = tested on: ragweed (common ragweed, Ambrosia elatior); assay: Test A preemergence; assay type: in vivo; settings: Ambrosia artemisiifolia, pre-emergence, 240 h, 1000 g ai/ha, 0 to 100 scale, read-out: Plant response rating, Ragweed
# In short: as §1
# [3] = tested on: kochia (Kochia scoparia); assay: Test A preemergence; assay type: in vivo; settings: Bassia scoparia, pre-emergence, 240 h, 1000 g ai/ha, 0 to 100 scale, read-out: Plant response rating, Kochia
# In short: as §1
# [4] = tested on: giant foxtail (Setaria faberii); assay: Test A preemergence; assay type: in vivo; settings: Setaria faberi, pre-emergence, 240 h, 1000 g ai/ha, 0 to 100 scale, read-out: Plant response rating, Foxtail, Giant
# In short: as §1
# [5] = tested on: barnyardgrass (Echinochloa crus-galli); assay: Test A preemergence; assay type: in vivo; settings: Echinochloa crus-galli, pre-emergence, 240 h, 1000 g ai/ha, 0 to 100 scale, read-out: Plant response rating, Barnyardgrass
# In short: as §1
# [6] = tested on: Italian ryegrass (Lolium multiflorum); assay: Test A preemergence; assay type: in vivo; settings: Lolium multiflorum, pre-emergence, 240 h, 1000 g ai/ha, 0 to 100 scale, read-out: Plant response rating, Ryegrass, Italian
# In short: as §1
# [7] = tested on: sedge, umbrella (small-flower umbrella sedge, Cyperus difformis); assay: Test B flooded paddy; assay type: in vivo; settings: Cyperus difformis, 336 h; 250 g ai/ha, Flood, 13 to 15 days, scale 0 (no effect) to 100 (complete control); read-out: Plant response rating, Sedge, Umbrella
# In short: (§2)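 Greenhouse pots flooded to 3 cm above soil at time of treatment received compound via the water, which stayed at that level.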
# [8] = tested on: ducksalad (Heteranthera limosa); assay: Test B flooded paddy; assay type: in vivo; settings: Heteranthera limosa, 336 h; 250 g ai/ha, Flood, 13 to 15 days, scale 0 (no effect) to 100 (complete control); read-out: Plant response rating, Ducksalad
# In short: as §2
# [9] = tested on: rice (Oryza sativa); assay: Test B flooded paddy; assay type: in vivo; settings: Oryza sativa, 336 h; 250 g ai/ha, Flood, 13 to 15 days, scale 0 (no effect) to 100 (complete control); read-out: Plant response rating, Rice
# In short: as §2
# [10] = tested on: barnyardgrass (Echinochloa crus-galli); assay: Test B flooded paddy; assay type: in vivo; settings: Echinochloa crus-galli, 336 h; 250 g ai/ha, Flood, 13 to 15 days, scale 0 (no effect) to 100 (complete control); read-out: Plant response rating, Barnyardgrass
# In short: as §2
# [11] = tested on: pigweed (Amaranthus retroflexus); assay: Test A postemergence; assay type: in vivo; settings: Amaranthus retroflexus, post-emergence, 240 h, 1000 g ai/ha, 0 to 100 scale, read-out: Plant response rating, Pigweed
# In short: as §1
# [12] = tested on: ragweed (common ragweed, Ambrosia elatior); assay: Test A postemergence; assay type: in vivo; settings: Ambrosia artemisiifolia, post-emergence, 240 h, 1000 g ai/ha, 0 to 100 scale, read-out: Plant response rating, Ragweed
# In short: as §1
# [13] = tested on: blackgrass (Alopecurus myosuroides); assay: Test A postemergence; assay type: in vivo; settings: Alopecurus myosuroides, post-emergence, 240 h, 1000 g ai/ha, 0 to 100 scale, read-out: Plant response rating, Blackgrass
# In short: as §1
# [14] = tested on: wheat (Triticum aestivum); assay: Test A postemergence; assay type: in vivo; settings: Triticum aestivum, post-emergence, 240 h, 1000 g ai/ha, 0 to 100 scale, read-out: Plant response rating, Wheat
# In short: as §1
# [15] = tested on: kochia (Kochia scoparia); assay: Test A postemergence; assay type: in vivo; settings: Bassia scoparia, post-emergence, 240 h, 1000 g ai/ha, 0 to 100 scale, read-out: Plant response rating, Kochia
# In short: as §1
# [16] = tested on: corn (Zea mays); assay: Test A postemergence; assay type: in vivo; settings: Zea mays, post-emergence, 240 h, 1000 g ai/ha, 0 to 100 scale
# In short: as §1
# [17] = tested on: giant foxtail (Setaria faberii); assay: Test A postemergence; assay type: in vivo; settings: Setaria faberi, post-emergence, 240 h, 1000 g ai/ha, 0 to 100 scale, read-out: Plant response rating, Foxtail, Giant
# In short: as §1
# [18] = tested on: barnyardgrass (Echinochloa crus-galli); assay: Test A postemergence; assay type: in vivo; settings: Echinochloa crus-galli, post-emergence, 240 h, 1000 g ai/ha, 0 to 100 scale, 0 no effect, 100 complete control, read-out: Plant response rating, Barnyardgrass
# In short: as §1
# [19] = tested on: galium (catchweed bedstraw, Galium aparine); assay: Test A postemergence; assay type: in vivo; settings: Galium, post-emergence, 240 h, 1000 g ai/ha, 0 to 100 scale, read-out: Plant response rating, Galium
# In short: as §1
# [20] = tested on: Italian ryegrass (Lolium multiflorum); assay: Test A postemergence; assay type: in vivo; settings: Lolium multiflorum, post-emergence, 240 h, 1000 g ai/ha, 0 to 100 scale, read-out: Plant response rating, Ryegrass, Italian
# In short: as §1
# [21] = tested on: wild oat (Avena fatua); assay: Test C postemergence; assay type: in vivo; settings: Avena fatua, post-emergence, Postemergence, scale 0 to 100, read-out: Plant response rating, Oat, Wild; for pest or weed control at 31 g/ha: 31 g ai/ha; for pest or weed control at 62 g/ha: 62 g ai/ha; for pest or weed control at 125 g/ha: 125 g ai/ha; for pest or weed control at 250 g/ha: 250 g ai/ha
# In short: (§3)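 After preemergence treatment of seeds in loam-sand soil or foliar treatment at the 1- to 4-leaf stage of plants in peat/vermiculite medium, pots were kept 13-15 days in the greenhouse. Each was then scored visually, 0 meaning no effect and 100 complete control.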
# [22] = tested on: Italian ryegrass (Lolium multiflorum); assay: Test C postemergence; assay type: in vivo; settings: Lolium multiflorum, post-emergence, 336 h, Postemergence, scale 0 to 100, read-out: Plant response rating, Ryegrass, Italian; for pest or weed control at 31 g/ha: 31 g ai/ha; for pest or weed control at 62 g/ha: 62 g ai/ha; for pest or weed control at 125 g/ha: 125 g ai/ha; for pest or weed control at 250 g/ha: 250 g ai/ha
# In short: as §3
SMILES,pest or weed control at 1000 g/ha [1],pest or weed control at 1000 g/ha [2],pest or weed control at 1000 g/ha [3],pest or weed control at 1000 g/ha [4],pest or weed control at 1000 g/ha [5],pest or weed control at 1000 g/ha [6],pest or weed control at 250 g/ha [7],pest or weed control at 250 g/ha [8],plant injury at 250 g/ha [9],pest or weed control at 250 g/ha [10],pest or weed control at 1000 g/ha [11],pest or weed control at 1000 g/ha [12],pest or weed control at 1000 g/ha [13],plant injury at 1000 g/ha [14],pest or weed control at 1000 g/ha [15],"Corn plant response rating (crop injury, 0 = no effect, 100 = complete kill) at 1000 g/ha [16]",pest or weed control at 1000 g/ha [17],pest or weed control at 1000 g/ha [18],pest or weed control at 1000 g/ha [19],pest or weed control at 1000 g/ha [20],further results
"Clc1cnc(Oc2cccc(Cl)c2Oc2ncc(Br)cn2)nc1 [Compound 17, 5-bromo-2-[2-chloro-6-[(5-chloro-2-pyrimidinyl)oxy]phenoxy]pyrimidine]",100%,100%,100%,100%,100%,100%,100%,100%,35%,20%,100%,90%,100%,100%,100%,100%,100%,100%,100%,100%,pest or weed control at 31 g/ha [21]: 0%; pest or weed control at 62 g/ha [21]: 0%; pest or weed control at 125 g/ha [21]: 5%; pest or weed control at 250 g/ha [21]: 15%; pest or weed control at 31 g/ha [22]: 0%; pest or weed control at 62 g/ha [22]: 0%; pest or weed control at 125 g/ha [22]: 5%; pest or weed control at 250 g/ha [22]: 15%; melting point: 166 to 169 °C
Fc1cnc(Oc2c(Br)cccc2Oc2ncc(Cl)cn2)nc1 [Compound 22],100%,90%,100%,100%,100%,90%,98%,100%,45%,45%,100%,90%,70%,70%,100%,70%,90%,90%,90%,90%,pest or weed control at 31 g/ha [21]: 0%; pest or weed control at 62 g/ha [21]: 5%; pest or weed control at 125 g/ha [21]: 10%; pest or weed control at 250 g/ha [21]: 15%; pest or weed control at 31 g/ha [22]: 0%; pest or weed control at 62 g/ha [22]: 0%; pest or weed control at 125 g/ha [22]: 5%; pest or weed control at 250 g/ha [22]: 5%; melting point: 113 to 116 °C
Fc1cnc(Oc2c(F)cccc2Oc2ncc(Cl)cn2)nc1 [Compound 23],100%,100%,100%,100%,100%,80%,80%,90%,60%,60%,100%,90%,80%,60%,90%,50%,90%,90%,90%,90%,pest or weed control at 31 g/ha [21]: 0%; pest or weed control at 62 g/ha [21]: 0%; pest or weed control at 125 g/ha [21]: 0%; pest or weed control at 250 g/ha [21]: 5%; pest or weed control at 31 g/ha [22]: 0%; pest or weed control at 62 g/ha [22]: 0%; pest or weed control at 125 g/ha [22]: 0%; pest or weed control at 250 g/ha [22]: 35%; melting point: 141 to 145 °C
"Fc1cccc(Oc2ncc(Cl)cn2)c1Oc1ncc(Br)cn1 [Compound 27, 5-bromo-2-[2-fluoro-6-[(5-chloro-2-pyrimidinyl)oxy]phenoxy]pyrimidine]",100%,90%,100%,100%,100%,70%,85%,80%,60%,50%,100%,80%,80%,50%,90%,40%,90%,90%,90%,90%,pest or weed control at 31 g/ha [21]: 0%; pest or weed control at 62 g/ha [21]: 5%; pest or weed control at 125 g/ha [21]: 10%; pest or weed control at 250 g/ha [21]: 15%; pest or weed control at 31 g/ha [22]: 0%; pest or weed control at 62 g/ha [22]: 0%; pest or weed control at 125 g/ha [22]: 5%; pest or weed control at 250 g/ha [22]: 5%; melting point: 145 to 148 °C
